Measured values: patent US20250236639A1, “NEUROACTIVE STEROIDS AND COMPOSITIONS THEREOF” (Sage Therapeutics, Inc., priority 2019, published 2025)

The molecules below were run against GABAA receptor (assay: Steroid inhibition of [35S]-TBPS binding, rat brain cortical membranes). Conditions: 3 nM [35S]-TBPS, in the presence of 5 mM GABA.
How it was run: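 In the presence of […], compounds (DMSO 0.5% final) competed with 3 nM [35S]-TBPS for Sprague-Dawley rat cortical membranes, pH 7.4 phosphate buffer, 90 min, room temperature. Filtration and scintillation counting; specific binding defined by […]; IC50 and maximal inhibition fitted per experiment, averaged as mean ± SEM.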
`C[C@@H]1C[C@H]2[C@H](CC[C@@H]3[C@@H]2CC[C@@]2(C)[C@H]3CC[C@@H]2[C@](C)(O)Cn2cc(C#N)cn2)C[C@]1(C)O` [Compound 52, 1-((S)-2-hydroxy-2-((2R,3S,5R,8R,9R,10S,13S,14S,17S)-3-hydroxy-2,3,13-trimethylhexadecahydro-1H-cyclopenta[a]phenanthren-17-yl)propyl)-1H-pyrazole-4-carbonitrile] was tested, and the IC50 was < 100 nM. With `C[C@@H]1C[C@H]2[C@H](CC[C@@H]3[C@@H]2CC[C@@]2(C)[C@H]3CC[C@@H]2[C@@](C)(O)Cn2cc(C#N)cn2)C[C@]1(C)O` [Compound 53, 1-((R)-2-hydroxy-2-((2R,3S,5R,8R,9R,10S,13S,14S,17S)-3-hydroxy-2,3,13-trimethylhexadecahydro-1H-cyclopenta[a]phenanthren-17-yl)propyl)-1H-pyrazole-4-carbonitrile] the IC50 was 100 to 1000 nM. With `COC[C@@]1(O)CC[C@@]2(C)[C@H](CC[C@@H]3[C@@H]2CC[C@@]2(C)[C@H]3CC[C@@H]2[C@@](C)(Cn2cc(C#N)cn2)OC)C1` [Compound 54, 1-((S)-2-((3R,5R,8R,9S,10S,13S,14S,17S)-3-hydroxy-3-(methoxymethyl)-10,13-dimethylhexadecahydro-1H-cyclopenta[a]phenanthren-17-yl)-2-methoxypropyl)-1H-pyrazole-4-carbonitrile] the IC50 was 100 to 1000 nM. For `COC[C@@]1(O)CC[C@@]2(C)[C@H](CC[C@@H]3[C@@H]2CC[C@@]2(C)[C@H]3CC[C@@H]2[C@](C)(Cn2cc(C#N)cn2)OC)C1` [Compound 55, 1-((R)-2-((3R,5R,8R,9S,10S,13S,14S,17S)-3-hydroxy-3-(methoxymethyl)-10,13-dimethylhexadecahydro-1H-cyclopenta[a]phenanthren-17-yl)-2-methoxypropyl)-1H-pyrazole-4-carbonitrile], the IC50 was 100 to 1000 nM. In the case of `COC[C@@]1(O)CC[C@H]2[C@H](CC[C@@H]3[C@@H]2CC[C@]2(C)[C@@H](C(C)(C)Cn4cc(C#N)cn4)CC[C@@H]32)C1` [Compound 56, 1-(2-((3R,5R,8R,9R,10S,13S,14S,17S)-3-hydroxy-3-(methoxymethyl)-13-methylhexadecahydro-1H-cyclopenta[a]phenanthren-17-yl)-2-methylpropyl)-1H-pyrazole-4-carbonitrile], the IC50 is reported as < 100 nM. `C[C@@]1(O)CC[C@H]2[C@H](CC[C@@H]3[C@@H]2CC[C@@]2(C)[C@H]3CC[C@@H]2[C@](C)(C#N)Cn2cc(C#N)cn2)C1` [Compound 57, 1-((S)-2-cyano-2-((3R,5R,8R,9R,10S,13S,14S,17S)-3-hydroxy-3,13-dimethylhexadecahydro-1H-cyclopenta[a]phenanthren-17-yl)propyl)-1H-pyrazole-4-carbonitrile] was tested, and the IC50 was < 100 nM. With `COC[C@H]1C[C@H]2[C@H](CC[C@@H]3[C@@H]2CC[C@@]2(C)[C@H]3CC[C@@H]2[C@](C)(O)Cn2cc(C#N)cn2)C[C@]1(C)O` [Compound 58, 1-((S)-2-hydroxy-2-((2R,3S,5R,8R,9R,10S,13S,14S,17S)-3-hydroxy-2-(methoxymethyl)-3,13-dimethylhexadecahydro-1H-cyclopenta[a]phenanthren-17-yl)propyl)-1H-pyrazole-4-carbonitrile] the IC50 was < 100 nM. `COC[C@@H]1C[C@H]2[C@H](CC[C@@H]3[C@@H]2CC[C@@]2(C)[C@H]3CC[C@@H]2[C@](C)(O)Cn2cc(C#N)cn2)C[C@]1(C)O` [Compound 58A, 1-((S)-2-hydroxy-2-((2S,3S,5R,8R,9R,10S,13S,14S,17S)-3-hydroxy-2-(methoxymethyl)-3,13-dimethylhexadecahydro-1H-cyclopenta[a]phenanthren-17-yl)propyl)-1H-pyrazole-4-carbonitrile] was tested, and the IC50 was < 100 nM. In the case of `COC[C@H]1C[C@H]2[C@H](CC[C@@H]3[C@@H]2CC[C@@]2(C)[C@H]3CC[C@@H]2[C@@](C)(O)Cn2cc(C#N)cn2)C[C@]1(C)O` [Compound 59, 1-((R)-2-hydroxy-2-((2R,3S,5R,8R,9R,10S,13S,14S,17S)-3-hydroxy-2-(methoxymethyl)-3,13-dimethylhexadecahydro-1H-cyclopenta[a]phenanthren-17-yl)propyl)-1H-pyrazole-4-carbonitrile], the IC50 is reported as 100 to 1000 nM. Work on `COC[C@@H]1C[C@H]2[C@H](CC[C@@H]3[C@@H]2CC[C@@]2(C)[C@H]3CC[C@@H]2[C@@](C)(O)Cn2cc(C#N)cn2)C[C@]1(C)O` [Compound 59A, 1-((R)-2-hydroxy-2-((2S,3S,5R,8R,9R,10S,13S,14S,17S)-3-hydroxy-2-(methoxymethyl)-3,13-dimethylhexadecahydro-1H-cyclopenta[a]phenanthren-17-yl)propyl)-1H-pyrazole-4-carbonitrile] yielded an IC50 of 100 to 1000 nM. For `CO[C@@H]1C[C@H]2[C@H](CC[C@@H]3[C@@H]2CC[C@@]2(C)[C@H]3CC[C@@H]2[C@](C)(O)Cn2cc(C#N)cn2)C[C@]1(C)O` [Compound 60, 1-((S)-2-hydroxy-2-((2R,3S,5R,8R,9R,10S,13S,14S,17S)-3-hydroxy-2-methoxy-3,13-dimethylhexadecahydro-1H-cyclopenta[a]phenanthren-17-yl)propyl)-1H-pyrazole-4-carbonitrile], the IC50 was < 100 nM. `CO[C@@H]1C[C@H]2[C@H](CC[C@@H]3[C@@H]2CC[C@@]2(C)[C@H]3CC[C@@H]2[C@@](C)(O)Cn2cc(C#N)cn2)C[C@]1(C)O` [Compound 61, 1-((R)-2-hydroxy-2-((2R,3S,5R,8R,9R,10S,13S,14S,17S)-3-hydroxy-2-methoxy-3,13-dimethylhexadecahydro-1H-cyclopenta[a]phenanthren-17-yl)propyl)-1H-pyrazole-4-carbonitrile] gave an IC50 of 100 to 1000 nM.
